Biological target: T1, DcVAO (vanillyl alcohol oxidase) (Diplodia corticola, UniProt A0A1J9QSC2)
T1 construct: gene BKCO1_4900020
Test: specific activity of purified enzyme, xylenol orange H2O2 assay
Type: biochemical

T1 sequence (A0A1J9QSC2 entry or part of it): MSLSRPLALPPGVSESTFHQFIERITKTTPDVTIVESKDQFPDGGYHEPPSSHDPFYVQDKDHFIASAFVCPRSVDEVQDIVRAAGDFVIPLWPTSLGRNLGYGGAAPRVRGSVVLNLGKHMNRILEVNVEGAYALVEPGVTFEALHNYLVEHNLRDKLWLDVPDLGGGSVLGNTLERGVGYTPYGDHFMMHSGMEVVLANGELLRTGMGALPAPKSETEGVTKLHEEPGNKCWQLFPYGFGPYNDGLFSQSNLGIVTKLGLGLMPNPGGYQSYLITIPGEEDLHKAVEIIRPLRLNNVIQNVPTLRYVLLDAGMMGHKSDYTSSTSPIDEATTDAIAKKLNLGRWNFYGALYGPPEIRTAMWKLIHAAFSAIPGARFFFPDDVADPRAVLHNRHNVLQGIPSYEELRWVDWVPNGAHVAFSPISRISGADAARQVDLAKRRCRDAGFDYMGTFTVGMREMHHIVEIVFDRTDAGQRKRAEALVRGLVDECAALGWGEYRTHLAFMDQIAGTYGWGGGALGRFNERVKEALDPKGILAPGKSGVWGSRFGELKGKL

Compound: COc1cc(CO)cc(OC)c1O [compound 6, 4-(hydroxymethyl)-2,6-dimethoxyphenol]
- specific activity of purified enzyme, xylenol orange H2O2 assay: 6.3 ± 0.5 U mg^−1
